# Measured values published in ChEMBL document CHEMBL1201862, “PubChem BioAssay data set” (2004).
# Active and inactive are the calls of the source.
# Key:
# [1] = NIH-3T3 fibroblast cytotoxicity, dose response, cytotoxicity control, cell-based, fluorescence, Alamar Blue, secondary assay (AID 2327); assay type: functional;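 note: NIH-3T3 mouse fibroblasts cultured with fluconazole at 8 µg/mL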
# Exodeoxyribonuclease V = target: T1, Exodeoxyribonuclease V (Escherichia coli (strain K12), UniProt P04993+P07648+P08394); experiment: E. coli RecBCD inhibitors, dose response, counter-screen for AddAB inhibitor project, absorbance, V66 E. coli, mutant T4 phage (AID 492957); assay type: functional, cell-based, Escherichia coli str. K-12 substr. MG1655
# T1 sequence (P04993 whole entry): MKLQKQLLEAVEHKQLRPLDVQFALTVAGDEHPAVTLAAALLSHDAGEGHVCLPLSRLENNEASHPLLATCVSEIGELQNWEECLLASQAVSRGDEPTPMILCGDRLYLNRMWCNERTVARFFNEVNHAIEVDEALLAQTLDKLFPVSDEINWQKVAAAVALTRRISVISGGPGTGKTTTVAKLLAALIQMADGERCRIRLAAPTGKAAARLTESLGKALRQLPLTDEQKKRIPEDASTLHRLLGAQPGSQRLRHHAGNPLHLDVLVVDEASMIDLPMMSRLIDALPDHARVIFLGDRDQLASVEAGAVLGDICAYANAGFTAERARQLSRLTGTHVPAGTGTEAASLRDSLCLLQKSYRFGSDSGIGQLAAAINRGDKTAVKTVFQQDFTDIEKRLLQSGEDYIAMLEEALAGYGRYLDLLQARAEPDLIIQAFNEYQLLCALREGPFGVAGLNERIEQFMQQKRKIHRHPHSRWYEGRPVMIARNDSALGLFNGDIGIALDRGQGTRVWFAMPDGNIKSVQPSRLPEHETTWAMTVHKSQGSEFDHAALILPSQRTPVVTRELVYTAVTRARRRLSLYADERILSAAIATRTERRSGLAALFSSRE
# T1 sequence (P07648 whole entry): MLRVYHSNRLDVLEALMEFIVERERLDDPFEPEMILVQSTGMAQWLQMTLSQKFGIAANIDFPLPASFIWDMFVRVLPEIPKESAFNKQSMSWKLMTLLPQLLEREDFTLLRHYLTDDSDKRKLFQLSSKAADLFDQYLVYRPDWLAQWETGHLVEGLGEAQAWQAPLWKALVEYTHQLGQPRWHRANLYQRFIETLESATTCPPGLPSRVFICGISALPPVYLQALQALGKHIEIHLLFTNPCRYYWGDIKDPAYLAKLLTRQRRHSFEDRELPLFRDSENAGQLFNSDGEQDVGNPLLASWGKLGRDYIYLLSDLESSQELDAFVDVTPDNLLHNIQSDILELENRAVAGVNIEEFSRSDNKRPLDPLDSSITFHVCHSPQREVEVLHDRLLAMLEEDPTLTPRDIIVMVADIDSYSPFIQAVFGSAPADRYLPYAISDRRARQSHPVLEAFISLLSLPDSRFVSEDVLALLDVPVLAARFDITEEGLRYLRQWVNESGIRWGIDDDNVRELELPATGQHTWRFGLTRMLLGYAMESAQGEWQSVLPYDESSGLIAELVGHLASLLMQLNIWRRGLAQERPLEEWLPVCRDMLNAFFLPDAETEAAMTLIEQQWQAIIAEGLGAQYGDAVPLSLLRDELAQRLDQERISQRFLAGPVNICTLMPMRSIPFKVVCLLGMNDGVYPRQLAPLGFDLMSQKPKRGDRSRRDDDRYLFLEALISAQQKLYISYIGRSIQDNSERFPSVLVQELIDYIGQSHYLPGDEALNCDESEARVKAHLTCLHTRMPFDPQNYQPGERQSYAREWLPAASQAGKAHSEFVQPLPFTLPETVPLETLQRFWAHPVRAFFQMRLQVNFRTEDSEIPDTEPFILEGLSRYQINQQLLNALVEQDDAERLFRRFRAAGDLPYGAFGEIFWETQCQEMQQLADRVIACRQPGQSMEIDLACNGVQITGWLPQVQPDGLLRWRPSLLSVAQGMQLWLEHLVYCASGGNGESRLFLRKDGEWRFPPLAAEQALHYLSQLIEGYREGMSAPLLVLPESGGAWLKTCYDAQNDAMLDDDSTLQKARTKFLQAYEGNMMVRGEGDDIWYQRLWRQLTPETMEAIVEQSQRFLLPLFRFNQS
# T1 sequence (P08394 whole entry): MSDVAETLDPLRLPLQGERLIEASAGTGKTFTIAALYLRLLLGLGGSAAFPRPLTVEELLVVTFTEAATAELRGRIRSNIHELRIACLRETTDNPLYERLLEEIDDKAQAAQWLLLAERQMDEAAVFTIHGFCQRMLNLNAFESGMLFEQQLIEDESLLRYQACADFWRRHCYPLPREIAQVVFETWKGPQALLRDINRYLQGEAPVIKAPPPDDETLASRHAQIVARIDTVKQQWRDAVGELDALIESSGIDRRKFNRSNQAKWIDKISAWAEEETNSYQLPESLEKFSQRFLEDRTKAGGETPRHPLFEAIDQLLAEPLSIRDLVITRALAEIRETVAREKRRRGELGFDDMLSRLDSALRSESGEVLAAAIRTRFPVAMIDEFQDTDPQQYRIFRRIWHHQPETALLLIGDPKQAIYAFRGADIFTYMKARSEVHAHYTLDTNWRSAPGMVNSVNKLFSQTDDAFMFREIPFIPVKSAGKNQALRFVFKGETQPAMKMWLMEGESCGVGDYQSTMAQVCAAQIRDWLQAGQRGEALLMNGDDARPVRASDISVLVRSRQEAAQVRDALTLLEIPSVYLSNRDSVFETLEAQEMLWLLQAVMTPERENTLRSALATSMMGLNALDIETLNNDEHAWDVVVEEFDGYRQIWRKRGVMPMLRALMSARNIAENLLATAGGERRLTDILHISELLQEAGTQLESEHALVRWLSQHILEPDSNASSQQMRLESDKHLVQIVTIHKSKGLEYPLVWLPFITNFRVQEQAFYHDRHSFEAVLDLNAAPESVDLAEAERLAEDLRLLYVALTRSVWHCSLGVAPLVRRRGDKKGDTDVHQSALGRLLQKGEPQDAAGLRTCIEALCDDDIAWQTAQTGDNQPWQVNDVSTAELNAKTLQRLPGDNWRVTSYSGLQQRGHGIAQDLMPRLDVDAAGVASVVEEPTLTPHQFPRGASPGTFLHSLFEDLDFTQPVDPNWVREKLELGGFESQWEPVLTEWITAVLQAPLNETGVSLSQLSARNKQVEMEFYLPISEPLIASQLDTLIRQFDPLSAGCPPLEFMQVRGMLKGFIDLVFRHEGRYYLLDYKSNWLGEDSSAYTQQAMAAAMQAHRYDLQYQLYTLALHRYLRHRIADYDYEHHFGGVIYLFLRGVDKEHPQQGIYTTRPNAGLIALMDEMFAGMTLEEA
# [2] = Counterscreen for AddAB inhibitors: absorbance-based bacterial cell-based high throughput dose response assay for inhibitors of bacterial viability. [Related pubchem assays (depositor defined):AID435030, AID449728, AID449731, AID488942, AID488955, AID488956]; assay type: functional
# Albumin = Albumin (Bos taurus, UniProt P02769); experiment: Counterscreen for inhibitors of T-cell receptor (TCR)-CD3 interaction: Fluorescence-based biochemical high throughput dose response assay to identify inhibitors of T-cell receptor (TCR)-CD3 interaction using a TAMRA-labeled BSA probe.; assay type: functional
# [3] = insulin promoter down-regulators in MIN6 cells, imaging, high-content screening, mouse beta cells (AID 1628); assay type: functional
# [4] = cytotoxicity in MIN6 insulinoma cells, dose response, cytotoxicity control, cell-based, mouse insulinoma (AID 2122); assay type: functional;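 note: confirmatory high-throughput counterscreen run to flag cytotoxic compounds; mouse MIN-6 beta cells carrying an insulin promoter eGFP reporter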
# [5] = target: T2, Short transient receptor potential channel 4 (Mus musculus, UniProt Q9QUQ5); experiment: mouse TRPC4 channel activators, dose response, cell-based, HEK293 TRPC4/mu-opioid, Fluo-4 calcium (AID 434937); assay type: functional
# T2 sequence (Q9QUQ5 whole entry): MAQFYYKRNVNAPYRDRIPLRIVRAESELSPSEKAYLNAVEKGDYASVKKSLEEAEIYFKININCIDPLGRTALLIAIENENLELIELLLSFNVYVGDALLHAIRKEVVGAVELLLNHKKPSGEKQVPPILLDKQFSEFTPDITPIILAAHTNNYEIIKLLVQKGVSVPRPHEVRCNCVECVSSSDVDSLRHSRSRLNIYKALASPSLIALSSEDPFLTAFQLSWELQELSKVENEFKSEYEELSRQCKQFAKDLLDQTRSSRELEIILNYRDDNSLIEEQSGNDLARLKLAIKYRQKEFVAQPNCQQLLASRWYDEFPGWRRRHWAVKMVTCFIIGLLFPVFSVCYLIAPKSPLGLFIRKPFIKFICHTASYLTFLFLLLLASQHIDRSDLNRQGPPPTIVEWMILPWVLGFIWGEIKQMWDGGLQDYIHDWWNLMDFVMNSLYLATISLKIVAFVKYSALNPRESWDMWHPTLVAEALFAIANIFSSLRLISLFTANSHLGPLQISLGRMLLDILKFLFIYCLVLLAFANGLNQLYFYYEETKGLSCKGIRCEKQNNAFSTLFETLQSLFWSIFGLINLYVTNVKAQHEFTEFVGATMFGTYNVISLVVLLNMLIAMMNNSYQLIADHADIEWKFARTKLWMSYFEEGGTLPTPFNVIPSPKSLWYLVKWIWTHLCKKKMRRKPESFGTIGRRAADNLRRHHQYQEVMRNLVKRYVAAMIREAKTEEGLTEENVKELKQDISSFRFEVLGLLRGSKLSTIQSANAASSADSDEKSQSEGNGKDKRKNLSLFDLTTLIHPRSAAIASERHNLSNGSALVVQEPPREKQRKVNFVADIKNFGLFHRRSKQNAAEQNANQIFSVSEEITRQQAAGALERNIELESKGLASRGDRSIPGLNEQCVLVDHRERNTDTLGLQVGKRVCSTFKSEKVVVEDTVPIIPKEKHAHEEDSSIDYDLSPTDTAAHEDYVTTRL
# [6] = target: T3, Voltage-gated N-type calcium channel alpha-1B subunit/Amyloid beta A4 precursor protein-binding family A member 1 (Homo sapiens, UniProt Q00975+Q02410); assay type: protein assay
# [7] = target: T3, Voltage-gated N-type calcium channel alpha-1B subunit/Amyloid beta A4 precursor protein-binding family A member 1; assay type: protein assay; remark: listed apart in the source
# H9c2 = experiment: cells; assay type: functional, cell-based; details: Rattus norvegicus, H9c2, Myocardium;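 note: confirmatory concentration-response retest of ultra-high-throughput screening hits for modulation of myocardial damage; cell death induced by hydrogen peroxide oxidative stress; compound pretreatment for 60 min then peroxide exposure for 2 h; potency is for protecting the cells against peroxide damage rather than for killing them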
# [8] = HeLa cell cytotoxicity, dose response, cytotoxicity control for MgcRacGAP inhibitor project (AID 624300); assay type: functional
# [9] = target: T4, Rac GTPase-activating protein 1 (Homo sapiens, UniProt Q9H0H5); experiment: MgcRacGAP GTPase-activating activity inhibitors, confirmation, biochemical, ADP Hunter fluorescence, primary and confirmatory (AID 624330); assay type: functional
# T4 sequence (Q9H0H5 whole entry): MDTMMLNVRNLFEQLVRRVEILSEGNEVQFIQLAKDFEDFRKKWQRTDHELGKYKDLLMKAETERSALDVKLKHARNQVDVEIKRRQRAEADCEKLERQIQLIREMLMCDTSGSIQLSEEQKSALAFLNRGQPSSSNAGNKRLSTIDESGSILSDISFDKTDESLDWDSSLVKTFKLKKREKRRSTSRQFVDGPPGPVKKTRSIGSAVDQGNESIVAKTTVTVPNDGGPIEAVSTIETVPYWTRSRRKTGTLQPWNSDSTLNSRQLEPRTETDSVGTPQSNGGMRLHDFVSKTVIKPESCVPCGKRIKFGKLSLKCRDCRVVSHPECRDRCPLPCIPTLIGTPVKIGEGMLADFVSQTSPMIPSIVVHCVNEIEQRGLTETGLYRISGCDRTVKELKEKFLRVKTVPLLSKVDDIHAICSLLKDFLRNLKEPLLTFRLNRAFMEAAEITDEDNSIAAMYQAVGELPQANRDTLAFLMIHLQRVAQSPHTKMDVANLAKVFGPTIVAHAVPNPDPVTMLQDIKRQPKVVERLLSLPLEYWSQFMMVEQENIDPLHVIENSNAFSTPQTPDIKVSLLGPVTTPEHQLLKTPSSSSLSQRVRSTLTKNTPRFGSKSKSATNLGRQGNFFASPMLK
# cells [10] = assay type: functional, cell-based
# cells [11] = assay type: functional, cell-based; remark: listed apart in the source
# [12] = Luminescence Cell-Based Dose Retest to Confirm Inhibitors of Cancer Stem Cells. [Related pubchem assays (depositor defined):AID2717, AID2721]; assay type: functional; details: Homo sapiens
# INS1 = experiment: beta cell apoptosis inhibitors, cytokine rescue, dose response, luminescence, retest (AID 449756); assay type: functional, cell-based; details: Rattus norvegicus;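 note: cell death triggered by IL-1 beta plus TNF-alpha plus IFN-gamma mixture; protective hits raise ATP signal compared with cytokine alone wells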
# [13] = HEp-2 cell cytotoxicity, dose response, cytotoxicity control for RSV inhibitor project, HTS (AID 2410); assay type: functional; details: human respiratory syncytial virus
# cells [14] = experiment: cells
# T3 sequence (Q00975 whole entry): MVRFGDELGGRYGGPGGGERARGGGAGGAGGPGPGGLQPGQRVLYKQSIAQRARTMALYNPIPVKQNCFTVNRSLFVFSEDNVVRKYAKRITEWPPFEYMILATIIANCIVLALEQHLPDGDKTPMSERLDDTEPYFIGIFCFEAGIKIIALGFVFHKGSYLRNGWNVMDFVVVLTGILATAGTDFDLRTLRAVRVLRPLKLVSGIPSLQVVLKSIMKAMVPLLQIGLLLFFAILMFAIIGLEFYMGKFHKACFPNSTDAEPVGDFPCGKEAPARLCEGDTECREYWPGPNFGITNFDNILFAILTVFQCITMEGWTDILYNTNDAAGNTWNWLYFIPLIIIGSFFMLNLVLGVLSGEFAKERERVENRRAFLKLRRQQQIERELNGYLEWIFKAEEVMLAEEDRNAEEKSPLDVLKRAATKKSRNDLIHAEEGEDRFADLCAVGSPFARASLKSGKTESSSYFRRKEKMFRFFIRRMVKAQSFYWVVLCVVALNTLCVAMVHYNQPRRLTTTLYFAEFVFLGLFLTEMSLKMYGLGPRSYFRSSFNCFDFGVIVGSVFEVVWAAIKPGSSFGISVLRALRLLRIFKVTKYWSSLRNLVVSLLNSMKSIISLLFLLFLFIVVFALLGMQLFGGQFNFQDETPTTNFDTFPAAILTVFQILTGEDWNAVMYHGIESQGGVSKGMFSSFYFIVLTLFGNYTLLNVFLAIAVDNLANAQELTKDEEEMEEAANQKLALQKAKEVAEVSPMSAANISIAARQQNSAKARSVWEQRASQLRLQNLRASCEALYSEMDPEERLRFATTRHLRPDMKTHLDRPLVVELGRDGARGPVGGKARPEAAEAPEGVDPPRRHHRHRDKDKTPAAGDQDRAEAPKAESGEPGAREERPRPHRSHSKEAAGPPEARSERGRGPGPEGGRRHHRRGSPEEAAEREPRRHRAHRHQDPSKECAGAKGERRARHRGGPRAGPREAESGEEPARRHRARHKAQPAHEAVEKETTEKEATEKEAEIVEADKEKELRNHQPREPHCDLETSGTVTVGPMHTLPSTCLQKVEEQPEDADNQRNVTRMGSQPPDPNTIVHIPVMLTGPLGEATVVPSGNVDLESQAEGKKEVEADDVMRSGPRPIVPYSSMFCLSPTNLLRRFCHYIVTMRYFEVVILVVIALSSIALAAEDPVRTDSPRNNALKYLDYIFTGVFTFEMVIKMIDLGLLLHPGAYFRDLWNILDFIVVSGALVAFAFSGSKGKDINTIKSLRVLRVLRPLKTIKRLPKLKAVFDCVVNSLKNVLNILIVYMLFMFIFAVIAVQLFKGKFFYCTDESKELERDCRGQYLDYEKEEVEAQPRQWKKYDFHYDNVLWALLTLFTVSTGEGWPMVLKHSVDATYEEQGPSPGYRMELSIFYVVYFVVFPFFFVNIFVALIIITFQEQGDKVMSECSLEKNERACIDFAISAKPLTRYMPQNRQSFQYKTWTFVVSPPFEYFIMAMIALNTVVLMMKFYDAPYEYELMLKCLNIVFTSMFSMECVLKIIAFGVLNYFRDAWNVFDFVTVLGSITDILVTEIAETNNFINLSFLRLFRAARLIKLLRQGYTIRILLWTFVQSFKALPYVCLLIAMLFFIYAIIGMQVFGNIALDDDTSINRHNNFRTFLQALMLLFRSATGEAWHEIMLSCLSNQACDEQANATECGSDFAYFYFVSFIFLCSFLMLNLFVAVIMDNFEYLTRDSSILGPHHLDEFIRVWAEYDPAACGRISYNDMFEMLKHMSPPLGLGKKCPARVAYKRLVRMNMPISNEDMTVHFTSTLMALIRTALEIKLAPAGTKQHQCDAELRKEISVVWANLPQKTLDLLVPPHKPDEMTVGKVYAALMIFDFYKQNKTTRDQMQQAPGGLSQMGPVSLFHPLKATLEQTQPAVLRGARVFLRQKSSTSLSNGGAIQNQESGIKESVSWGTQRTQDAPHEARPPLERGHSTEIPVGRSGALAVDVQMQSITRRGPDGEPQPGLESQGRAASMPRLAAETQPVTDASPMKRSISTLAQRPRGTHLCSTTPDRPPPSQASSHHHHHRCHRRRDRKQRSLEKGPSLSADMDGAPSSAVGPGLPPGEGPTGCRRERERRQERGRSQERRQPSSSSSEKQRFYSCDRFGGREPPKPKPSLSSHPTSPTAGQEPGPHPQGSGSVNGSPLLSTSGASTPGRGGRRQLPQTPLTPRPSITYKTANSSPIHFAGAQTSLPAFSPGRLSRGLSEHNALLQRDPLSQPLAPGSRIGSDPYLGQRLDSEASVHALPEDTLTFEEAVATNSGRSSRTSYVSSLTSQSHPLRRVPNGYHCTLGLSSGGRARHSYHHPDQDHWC
# T3 sequence (Q02410 whole entry): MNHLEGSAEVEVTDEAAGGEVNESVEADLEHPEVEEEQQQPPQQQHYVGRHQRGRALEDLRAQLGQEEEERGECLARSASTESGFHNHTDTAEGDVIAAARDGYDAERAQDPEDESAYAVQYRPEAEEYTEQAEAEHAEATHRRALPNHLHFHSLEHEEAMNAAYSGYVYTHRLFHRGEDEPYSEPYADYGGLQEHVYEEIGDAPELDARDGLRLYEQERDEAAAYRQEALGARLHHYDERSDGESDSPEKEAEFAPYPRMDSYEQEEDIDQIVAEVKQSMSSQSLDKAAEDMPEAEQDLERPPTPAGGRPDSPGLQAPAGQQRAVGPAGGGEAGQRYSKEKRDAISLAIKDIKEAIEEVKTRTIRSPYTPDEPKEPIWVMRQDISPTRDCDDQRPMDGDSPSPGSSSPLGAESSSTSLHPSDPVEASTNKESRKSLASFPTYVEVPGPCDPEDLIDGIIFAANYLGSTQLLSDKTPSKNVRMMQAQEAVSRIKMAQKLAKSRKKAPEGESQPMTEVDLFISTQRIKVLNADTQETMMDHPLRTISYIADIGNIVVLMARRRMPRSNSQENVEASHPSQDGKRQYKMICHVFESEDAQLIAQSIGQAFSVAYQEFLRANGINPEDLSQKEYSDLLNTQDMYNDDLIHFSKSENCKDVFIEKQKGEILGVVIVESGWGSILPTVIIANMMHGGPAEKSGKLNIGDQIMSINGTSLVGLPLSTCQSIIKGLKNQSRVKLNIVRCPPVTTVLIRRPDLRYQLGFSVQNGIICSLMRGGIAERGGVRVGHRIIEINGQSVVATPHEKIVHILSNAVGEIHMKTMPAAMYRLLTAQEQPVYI
# Sequence of Albumin (P02769 whole entry): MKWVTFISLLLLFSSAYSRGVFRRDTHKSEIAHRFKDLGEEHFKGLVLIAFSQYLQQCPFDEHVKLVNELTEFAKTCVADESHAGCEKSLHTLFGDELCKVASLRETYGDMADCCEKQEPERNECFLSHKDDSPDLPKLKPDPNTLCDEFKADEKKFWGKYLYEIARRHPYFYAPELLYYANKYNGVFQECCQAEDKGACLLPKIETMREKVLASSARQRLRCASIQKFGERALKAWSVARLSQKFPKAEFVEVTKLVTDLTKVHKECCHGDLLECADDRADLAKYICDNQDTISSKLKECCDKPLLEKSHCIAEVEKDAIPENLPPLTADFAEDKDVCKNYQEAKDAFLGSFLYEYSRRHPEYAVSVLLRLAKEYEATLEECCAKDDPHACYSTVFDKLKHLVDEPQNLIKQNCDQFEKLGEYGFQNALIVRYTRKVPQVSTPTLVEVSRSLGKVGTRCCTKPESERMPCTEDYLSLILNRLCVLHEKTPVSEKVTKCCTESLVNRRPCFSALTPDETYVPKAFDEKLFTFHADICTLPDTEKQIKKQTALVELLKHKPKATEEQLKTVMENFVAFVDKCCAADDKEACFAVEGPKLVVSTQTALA
smiles,measurement,setting,value
COc1ccccc1NC(=O)NNC(=O)c1cc2ccccc2cc1O,EC50,[1],> 160 µM (inactive)
same,IC50,Exodeoxyribonuclease V,> 119 µM (inactive)
same,IC50,[2],> 119 µM (inactive)
same,IC50,Albumin,> 94.1 µM (inactive)
CCN1CCN(S(=O)(=O)c2cc(OCC(=O)NC3CCCCC3)c(C)cc2Cl)CC1,IC50,[3],2.29 µM (active)
same,IC50,[4],2.03 µM (active)
CC1(c2ccc([N+](=O)[O-])cc2)CC(C)(C)N(C(=O)c2ccccc2)c2ccccc21 (stereo not drawn),IC50,[3],7.17 µM (active)
same,IC50,[4],7.16 µM (active)
CCN1CCN(c2ccc(S(=O)(=O)N3CCCCC3)cc2NC(=O)c2cccc(C)c2[N+](=O)[O-])CC1,EC50,[5],2.99 µM (active)
COc1cc(/C=C/c2nc3ccccc3c(=O)n2-c2ccccc2O)ccc1O,IC50,[6],> 56.8 µM (not active)
same,IC50,[7],> 50 µM (inactive)
same,IC50,H9c2,9.09 µM (active)
same,CC50,[8],94 µM (active)
same,IC50,[9],40.6 µM (active)
Cc1cc([N+](=O)[O-])nn1Cc1ccc(C(=O)N/N=C/c2ccc(O)cc2O)cc1,EC50,cells [10],9.79 µM (active)
same,EC50,cells [11],> 350 µM (not active)
same,IC50,Exodeoxyribonuclease V,> 119 µM (inactive)
same,AC50,[12],1.71 µM (active)
same,IC50,[2],> 119 µM (inactive)
same,AC50,INS1,1.37 µM (active)
CC(C)(C)c1cc(O)c(C(C)(C)C)cc1O,CC50,[13],> 50 µM (active)
same,EC50,[5],0.376 µM (active)
same,IC50,cells [14],37.2 µM (active)
